Source: patent publication US8227414B2 ([…].R.L., priority 2005, dated 2012)

What was measured:
mice [1] = assay: Spontaneous locomotor activity in mice; assay type: in vivo, mouse
Experimental: (§1) Control animals received one i.c.v. injection of saline (2 μl/mouse). Each point represents the mean±s.e.m. of at least 4 experiments.
3) assay for measurement of spontaneous locomotor activity, as described by Rizzi et al., (Naunyn Schmiedebergs Arch Pharmacol 363, 161-165, 2001.

mice [2] = assay: Tail withdrawal assay in mice; assay type: in vivo, mouse
Experimental: as §1
1) tail withdrawal assay, according to the experimental protocols described by Calò et al., (Br J Pharmacol 125, 373-378, 1998) and Rizzi et al. (Clin Pharmacol 18, 56, 2004);

mouse vas deferens = assay: Inhibition of the twitch induced by electrical stimulation of mouse vas deferens; assay type: cell-based
Experimental: The compounds were tested in vitro on Hamster oocytes membranes expressing the human recombinant NOP receptor (CHOhNoP) (receptor binding experiments and GTP?S binding stimulation experiments) and on the mouse vas deferens after electrical stimulation.

[3] = Metabolic stability in mouse plasma; assay type: in vitro ADME
Experimental: (§2) Plasma and brain tissue samples were obtained from male Swiss mice (Morini, Reggio Emilia, Italy, 25-30 g). The animal, sacrificed by ether anesthesia, was perfused with physiological heparin solution injected through a needle placed in the left ventricle. Blood was then withdrawn and was centrifuged at 14000×g for 2 minutes at room temperature. After separation from the pellet, the plasma was aliquoted and stocked at −80° C. After blood withdrawal, the animal was perfused further with a physiological solution for 2 minutes before brain removal. The brain tissue was homogenized in 5 vol. (w/v) of Tris/HCl (50 mM, pH 7.4, 0° C.) with a ultra-Turrax (Janke Kunkel, Staufen, FRG) 3 times for 15 seconds each. The supernatant obtained by centrifugation (3000×g for 15 min at 4° C.) was decanted and then stocked at −80° C.
(§3) The protein content of the preparations, determined by the Bradford method, as described in Anal. Biochem., 72, 248-254, 1976, was approximately 8 μg/μl for the brain homogenate and 17 μg/μl for the plasma
(§4) An aliquot of 100 μl solution of each peptide (3 mg/500 μl Tris) was incubated (at a final concentration of […]) with brain homogenate or plasma (450 μl) in a total volume of 1 ml, containing Tris/HCl 50 mM pH 7.4 buffer. Incubation of the aliquots was carried out at 37° C. for various periods up to 240 min. At different incubation times, an aliquot of the solution (100 μl) was removed and the degradation was blocked by addition of 4.5% TFA solution (200 μl). After centrifugation (3000 rpm for 15 minutes) an aliquot (100 μl) of supernatant was injected into RP-HPLC. HPLC analysis was performed in a Kromasil 100-5C18 column (4.6×250 mm) using a Beckman System Gold chromatography system equipped with a variable wave length UV detector.
(§5) The experimental conditions for elution included a gradient analysis with water (solvent A) and acetonitrile (solvent B), both containing 0.1% TFA, at a flow rate of 0.7 ml/min. The following protocol was used for gradient analysis, selected on the basis of the physico-chemical characteristics of the analyte: linear gradient from 5% to 40% B in 20 minutes; linear gradient from 40% to 60% B in 5 minutes; linear gradient from 60% to 5% B in 5 minutes. The eluate was monitored at 220 nm. The half life (T1/2) was obtained by linear regression with the least square method, diagramming the peak areas of each derivative as a function of the incubation times, using at least five points for each analysis.

mice [4] = assay: Food intake in fed mice; assay type: in vivo, mouse
Source text: 2) measurement of food intake in fed animals, as described by Rizzi et al. (National Congress of the Italian Society of Neuroscience and joint Italian-Swedish Neuroscience Meetings, Ischia (Napoli) 1-4 Oct. 2005);

[5] = target: T1, human recombinant opioid receptor delta (DOP) (Homo sapiens, UniProt P41143); assay: Receptor binding on CHO membranes, [3H]-Diprenorphine; details: Table 3; CHO cells; [3H]-Diprenorphine
T1 construct: expressed in transfected cells; host or cells: CHO cells, membranes
T1 sequence (P41143 whole entry): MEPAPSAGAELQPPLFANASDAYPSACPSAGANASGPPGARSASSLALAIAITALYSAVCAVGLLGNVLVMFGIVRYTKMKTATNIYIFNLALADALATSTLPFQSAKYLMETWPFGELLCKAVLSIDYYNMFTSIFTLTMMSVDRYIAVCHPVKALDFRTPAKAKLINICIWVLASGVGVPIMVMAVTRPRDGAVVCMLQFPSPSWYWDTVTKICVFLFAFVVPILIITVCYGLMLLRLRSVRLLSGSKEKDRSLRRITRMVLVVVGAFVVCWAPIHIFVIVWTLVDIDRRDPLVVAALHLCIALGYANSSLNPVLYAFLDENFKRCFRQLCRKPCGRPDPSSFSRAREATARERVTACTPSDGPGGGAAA

[6] = target: T2, human recombinant NOP receptor (Homo sapiens, UniProt P41146); assay: Receptor binding, displacement of tritiated N/OFQ on CHOhNOP membranes
T2 construct: expressed in transfected cells; host or cells: CHO cells (CHOhNOP), membranes
T2 sequence (P41146 whole entry): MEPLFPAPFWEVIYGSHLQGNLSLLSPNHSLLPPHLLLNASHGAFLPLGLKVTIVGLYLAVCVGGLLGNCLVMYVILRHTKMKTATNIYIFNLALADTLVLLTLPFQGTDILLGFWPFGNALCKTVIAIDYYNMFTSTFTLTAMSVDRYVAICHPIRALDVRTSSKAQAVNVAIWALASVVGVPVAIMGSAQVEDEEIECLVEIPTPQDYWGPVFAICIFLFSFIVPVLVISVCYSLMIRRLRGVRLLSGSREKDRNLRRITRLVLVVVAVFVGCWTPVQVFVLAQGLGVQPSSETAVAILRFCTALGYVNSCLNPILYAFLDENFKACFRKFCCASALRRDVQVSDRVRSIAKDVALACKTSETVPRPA

[7] = Metabolic stability in mouse brain homogenate; assay type: in vitro ADME; details: male, Swiss, pH 7.4, mouse brain homogenate, 37° C., mean±standard deviation, read-out: T½ Brain
Experimental: as §2, §3, §4, §5

[8] = system: vas deferens of knockout mice for the NOP receptor (NOP−/−); assay: Electrically stimulated vas deferens from NOP receptor knockout mice; assay type: cell-based, mouse
[9] = target: T3, human recombinant opioid receptor mu (MOP) (Homo sapiens, UniProt P35372); assay: Receptor binding on CHO membranes, [3H]-Diprenorphine; details: Table 3; CHO cells; [3H]-Diprenorphine
T3 construct: expressed in transfected cells; host or cells: CHO cells, membranes
T3 sequence (P35372 whole entry): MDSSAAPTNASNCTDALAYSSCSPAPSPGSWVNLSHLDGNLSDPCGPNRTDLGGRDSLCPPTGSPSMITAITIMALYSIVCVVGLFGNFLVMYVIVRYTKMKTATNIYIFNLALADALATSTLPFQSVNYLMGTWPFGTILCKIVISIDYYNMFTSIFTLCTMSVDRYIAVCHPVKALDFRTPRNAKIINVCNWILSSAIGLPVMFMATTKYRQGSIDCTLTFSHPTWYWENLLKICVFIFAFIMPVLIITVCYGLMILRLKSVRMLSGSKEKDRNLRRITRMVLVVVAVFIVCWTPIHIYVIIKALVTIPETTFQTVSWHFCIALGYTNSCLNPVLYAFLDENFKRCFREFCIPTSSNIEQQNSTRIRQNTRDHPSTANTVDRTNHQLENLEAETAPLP

[10] = target: T2, human recombinant NOP receptor; assay: Stimulation of GTP?S binding on CHOhNOP membranes; assay type: biochemical
[11] = target: T4, human recombinant opioid receptor kappa (KOP) (Homo sapiens, UniProt P41145); assay: Receptor binding on CHO membranes, [3H]-Diprenorphine; details: Table 3, CHO cells
T4 construct: expressed in transfected cells; host or cells: CHO cells, membranes
T4 sequence (P41145 whole entry): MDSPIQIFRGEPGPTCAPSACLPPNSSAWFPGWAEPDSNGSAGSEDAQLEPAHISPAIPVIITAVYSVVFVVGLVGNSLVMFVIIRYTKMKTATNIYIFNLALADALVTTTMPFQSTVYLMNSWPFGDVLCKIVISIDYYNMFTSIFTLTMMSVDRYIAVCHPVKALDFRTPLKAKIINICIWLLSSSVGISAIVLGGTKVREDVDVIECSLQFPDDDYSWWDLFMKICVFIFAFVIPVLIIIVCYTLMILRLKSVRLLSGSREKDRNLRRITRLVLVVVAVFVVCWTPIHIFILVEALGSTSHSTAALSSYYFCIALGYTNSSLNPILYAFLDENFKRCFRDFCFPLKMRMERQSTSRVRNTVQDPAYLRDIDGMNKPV

[12] = Table 2, wild type (NOP+/+) mice

C[C@H](NC(=O)[C@H](CO)NC(=O)[C@H](CCCCN)NC(=O)[C@H](CCCNC(=N)N)NC(=O)C(C)(C)NC(=O)CNC(=O)[C@@H](NC(=O)[C@H](Cc1ccc(F)cc1)NC(=O)CNC(=O)CNC(=O)[C@@H](N)Cc1ccccc1)[C@@H](C)O)C(=O)N[C@@H](CCCNC(=N)N)C(=O)N[C@@H](CCCCN)C(=O)N[C@@H](CCCNC(=N)N)C(=O)N[C@@H](CCCCN)C(=O)N[C@@H](CC(N)=O)C(=O)N[C@@H](CCC(N)=O)C(N)=O [UFP-112, [(pF)Phe^4,Aib^7,Arg^14,Lys^15]N/OFQ-NH2]
Time after which locomotor effect ended (mice [1]; 0.1 nmol i.c.v.): about 6 h | Effect on spontaneous locomotor activity (mice [1]; i.c.v., N/OFQ 10 nmol, UFP-112 0.1 nmol): inhibited the locomotor activity | Effect in tail withdrawal assay, i.c.v. (mice [2]; 0.001-0.1 nmol, intracerebroventricular): pronociceptive effects | Effect in tail withdrawal assay, i.t. (mice [2]; 0.001-0.1 nmol, intrathecal): antinociceptive effects | Tail withdrawal effects in NOP−/− mice (mice [2]; NOP−/− mice): absent | Duration of action in tail withdrawal test (mice [2]; equi-effective doses): > 120 min | Potency in vivo relative to N/OFQ (mice [2]; stated for each in vivo assay (tail withdrawal, food intake, locomotor activity)): about 100 fold | Inhibition of the twitch induced by electric stimulation, Agonist Emax (mouse vas deferens; Table 1): −85 ± 2% | Inhibition of the twitch induced by electric stimulation, Agonist pEC50 (mouse vas deferens; Table 1): 9.48 | Emax NOP+/+ (mouse vas deferens; [12]): 93 ± 3% | pEC50 NOP+/+ (mouse vas deferens; [12]): 8.94 | Kinetics of action and reversibility of the effects after washing (mouse vas deferens; compared with N/OFQ, equi-effective concentrations): much slower | Increase in potency compared to the reference sequence (mouse vas deferens; mouse vas deferens): more than 100 fold | Action in the mouse vas deferens in presence of naloxone (mouse vas deferens; naloxone present): not modified | half-life at 6 μg/μl ([3]; male, Swiss, mouse, plasma, pH 7.4, mouse plasma, 37° C., mean±standard deviation, read-out: T½ Plasma): 2.78 ± 0.15 h | Plasma T½ compared to N/OFQ ([3]; mouse plasma): almost three-fold longer | Hyperphagic effects in NOP−/− mice (mice [4]; NOP−/− mice): absent | Potency relative to N/OFQ in food intake (mice [4]; fed mice): 100 fold | Effect on food intake (mice [4]; fed mice, equi-effective doses): significant increase | pKi DOP [5]: 6.37 | Receptor binding PKi ([6]; Table 1, membrane of CHOhNOP cells, tritiated N/OFQ): 10.55 | pKi NOP ([6]; Table 3, CHO cells, [3H]N/OFQ): 10.55 | half-life at 6 μg/μl [7]: 0.188 ± 0.0233 h | Inhibitory effect on the contraction induced by electrical stimulation in NOP−/− vas deferens [8]: disappeared | pEC50 NOP−/− ([8]; Table 2): <6 | pKi MOP [9]: 7.13 | Stimulation upon binding GTP?S, Agonist pEC50 ([10]; Table 1, membrane of CHOhNOP cells): 10.55 | Emax ([10]; read-out: Stimulation upon binding GTP?S, Agonist Emax): 118 ± 9% | pKi KOP [11]: 8.36
